Experimental data: US20220143183A1, “PHOTOSWITCHABLE PROTACS AND SYNTHESIS AND USES THEREOF” (New York University, priority 2019, published 2022)

Key:
BRD4 = BRD4 (Homo sapiens, UniProt O60885); assay: Western blot of BRD4 levels in RS4;11 cells; format: cell-based; set-up: endogenous in cells; host or cells: RS4;11 (ATCC CRL-1873); conditions: 4 h
Protocol: Next, the light dependence of targeted protein degradation was analyzed in RS4;11 cells by western blot analysis of the BET proteins BRD2-4 (FIG. 5). To this end, cells were treated with increasing concentrations of our lead compound, PHOTAC-I-3, for 4 h and pulse-irradiated with 390 nm light (100 ms every 10 s). […] The cereblon-dependent degradation was confirmed by a competition experiment (FIG. 5E), and further validated by siRNA knockdown of cereblon (FIG. 13).
Western Immunoblot Analysis. Rabbit monoclonal Antibodies for BRD4 (#13440), β-Actin (#4970) c-Myc (#5605) and Anti-rabbit IgG, HRP-linked Antibody (#7074) were purchased from Cell Signalling Technologies.
(§1) Cells were incubated with different concentrations of selected compounds. They were placed in a light-proof box and preirradiated for 1 min at 390 nm followed by 100 ms pulses every 10 s or were kept in the dark for 4 h.
(§2) Cultured cells were collected by centrifugation and washed twice with cold PBS. The supernatant was removed and each cell pellet was lysed in 100 μL NP40-Cell-Lysis Buffer+0.1% SDS+1 mM PMSF+ protease inhibitor cocktail (Sigma Aldrich) for 30 min on ice, with vortexing at 10-minute intervals. Afterwards, cells were centrifuged at 13.000 rpm for 10 min at 4° C. Samples were stored on ice and the supernatant was collected for protein concentration determination using a Thermofisher Scientific Pierce™ Coomassie Plus (Bradford) Assay Kit.
(§3) The samples were diluted each with 5 μL Laemmli sample buffer Invitrogen (NuPAGE LDS Sample Buffer 4×) and 1 μL DTT, heated at 95° C. for 5 min. Respectively 20 μL of each sample was loaded in a lane of a Bio-Rad Mini-PROTEAN TGX precast Gel, 4-20%, used with tris-glycine SDS Running buffer. The gel ran 5 min at 50 V, then 35 min at 140 V. Next step was the electrotransfer to a polyvinylidene difluoride (PVDF) membrane which was carried out using an iBlot™ 2 Dry Blotting System set to the standard program. After the transfer, the membrane was washed with 25 mL TB ST for 5 min and subsequent incubated in 25 mL of blocking buffer (1×TBST+5% nonfat dry milk, Blotto, Santa Cruz Biotechnology) for 1 h at room temperature. The membrane was washed three times for 5 min each with 15 mL of TBST and incubated in a 10 mL antibody dilution buffer with gentle agitation at 4° C. overnight (Actin: 1:1000; c-MYC: 1:1000; BRD4: 1:1000). The next day, the membrane was washed again three times for 5 min each with 15 mL TBST, followed by incubation with anti-rabbit, HRP-linked antibody (1:2000) in 10 mL blocking buffer with gentle agitation for 1 h at room temperature. Afterwards, the membrane was washed three times for 5 min each with 15 mL TBST and then incubated in 10 mL of Clarity Max Western ECL Substrate solution for 5 min. Chemoluminescence imaging was performed on a Bio-Rad ChemiDoc™ Imaging System.
(§4) LED illumination. For illumination of the cells we used the cell disco system as previously described in the literature^[25]. 390 nm 5 mm LEDs were purchased from Roithner Lasertechnik. Cells were preirradiated for 1 min at 390 nm, followed by 100 ms pulses every 10 s in 96- or 6-well plates.

RS4;11 lymphoblast cells = assay: Cell viability assay (Promega MTS), dark or pulsed irradiation; format: cell-based, human; conditions: 72 h, dark vs pulsed 390 nm irradiation
Protocol: Optical control of BRD2-4 with PHOTACs. To assess the biological activity of the PHOTACs, their effect on the viability of RS4;11 lymphoblast cells was tested. Cells were treated in a 96-well plate with increasing concentrations of PHOTACs and were either irradiated with 390 nm light pulses (100 ms every 10 s) for 72 h or incubated with the compound in the dark. Subsequently, cell viability assays (Promega MTS) were performed, as previously described.
Cell culture. The human acute lymphoblastic leukemia RS4;11 (ATCC® CRL-1873™) cell line was purchased from the American Type Culture Collection and cultured in RPMI1640 medium (Gibco) with 10% fetal bovine serum (FBS) and 1% penicillin/streptomycin (PS) in a humidified incubator at 37° C. with 5% CO2 in air. Cells were divided every 2-3 days and the concentration was maintained between 1×10^5 and 1×10^6 cells/mL. For the experiments compounds were serially diluted in RPMI160 without the dye phenol red (Gibco) to reduce the influence of the dye by absorption. Azobenzene stocks and dilutions were strictly kept in the dark and prepared under red light conditions.
Colorimetric MTT Assays. The activity of dehydrogenase enzymes in metabolically active cells, as a quantitative measurement for cytotoxicity and proliferation, was determined by colorimetric measurement of the reduction of [3-(4,5-dimethylthiazol-2-yl)-5-(3-carboxymethoxyphenyl)-2-(4-sulfophenyl)-2H-tetrazolium (MTS) to formazan. The absorbance of formazan at 490 nm was measured on a FLUOstar Omega microplate reader (BMG Labtech).
Cells were treated with different concentrations, ranging from 10 μM to 1 nM, of our compounds and incubated on a 96-well plate for 72 h. They were placed in light-proof boxes and exposed to the lighting conditions specified in the experiment for 72 h. Next, 10 μL of Promega CellTiter 96® AQueous One Solution Reagent was added to each well and incubated for further 4-7 hours. The absorbance at 490 nm was then recorded with a 96-well plate reader.
as §4

FKBP12 = molecular target: T1, FKBP12 (Homo sapiens, UniProt P62942); assay: Immunoblot of FKBP12 levels in RS4;11 cells; format: cell-based; conditions: for FKBP12 levels: 390 nm pulse irradiation (100 ms every 10 s); for FKBP12 degradation: in the dark; for hook effect in FKBP12 degradation: 4 h, different concentrations; for FKBP12 degradation with MLN4924: in the presence of MLN4924; for light activation among compounds targeting FKBP12: light vs dark
T1 construct: endogenous in cells; host or cells: RS4;11 (ATCC CRL-1873)
Protocol: FIG. 6 depicts optical control of FKBP12 degradation. A) Immunoblot analysis of FKBP12 after treatment of RS4;11 cells with PHOTAC-II-5 for 4 h at different concentrations. Cells were either irradiated with pulses of 390 nm light (left, 100 ms every 10 s) or kept in the dark (right). B) Time course of FKBP12 degradation visualized by immunoblotting. RS4;11 cells were treated with PHOTAC-II-5 (100 nM) and collected at the indicated time points. C) Immunoblot analysis of FKBP12 after treatment of RS4;11 cells with PHOTAC-II-6 for 4 h at different concentrations. Cells were either irradiated with pulses of 390 nm light (left, 100 ms every 10 s) or kept in the dark (right). D) Time course of FKBP12 degradation visualized by immunoblotting. RS4;11 cells were treated with PHOTAC-II-6 (100 nM) and collected at the indicated time points.
FIG. 15 depicts FKBP12 immunoblots in RS4;11 cells. […] B) Degradation of FKBP12. Immunoblot analysis of FKBP12 after treatment of RS4;11 cells with PHOTAC-II-1 for 4 h at different concentrations. Cells were either irradiated with 100 ms pulses of 390 nm light every 10 s (left) or kept the dark (right). C) Time course of FKBP12 degradation visualized by immunoblotting.
Amongst the molecules tested, PHOTAC-II-5 and PHOTAC-II-6 turned out to be the most useful, and the biological investigations have been focused on these molecules (for PHOTACs-II-1-4, see FIG. 16). […] The degradation was slower than in the case of BET proteins, but between 6 and 12 hours the protein was largely absent from the cell lysates (FIG. 6B). […] The time course of FKBP12 degradation by PHOTAC-II-6 was similar to the one observed with PHOTAC-II-5 (FIG. 6D).
as §1, §2, §3
LED illumination. For illumination of the cells we used the cell disco system as previously described in the literature^[25]. […]

T1 sequence (P62942 whole entry): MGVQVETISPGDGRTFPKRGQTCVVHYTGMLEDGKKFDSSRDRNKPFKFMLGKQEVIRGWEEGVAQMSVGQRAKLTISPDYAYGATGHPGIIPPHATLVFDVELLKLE

Compound	BRD4 levels (BRD4; 390 nm pulses (100 ms every 10 s))	light dependence of activity in viability assay (RS4;11 lymphoblast cells)	concentration at which robust photodegradation of BRD4 was found (BRD4; 390 nm pulses) [nM]	hook effect in BRD4 degradation (BRD4; different concentrations, 390 nm)	FKBP12 levels (FKBP12)	FKBP12 degradation (FKBP12)	hook effect in FKBP12 degradation (FKBP12)	FKBP12 degradation with MLN4924 (FKBP12)	light activation among compounds targeting FKBP12 (FKBP12)
COc1cc(/N=N/c2cccc3c2CN(C2CCC(=O)N(C)C2=O)C3=O)cc(OC)c1OCC(=O)NCCCCNC(=O)C[C@@H]1N=C(c2ccc(Cl)cc2)c2c(sc(C)c2C)-n2c(C)nnc21 (stereo partly drawn) [Me-PHOTAC-I-3, 2-((S)-4-(4-chlorophenyl)-2,3,9-trimethyl-6H-thieno[3,2-f][1,2,4]triazolo[4,3-a][1,4]diazepin-6-yl)-N-(4-(2-(2,6-dimethoxy-4-((E)-(2-(1-methyl-2,6-dioxopiperidin-3-yl)-1-oxoisoindolin-4-yl)diazenyl)phenoxy)acetamido)butyl)acetamide]	inactive control	–	–	–	–	–	–	–	–
Cc1sc2c(c1C)C(c1ccc(Cl)cc1)=N[C@@H](CC(=O)Nc1ccc(/N=N/c3ccc(NC(=O)COc4cccc5c4C(=O)N(C4CCC(=O)NC4=O)C5=O)cc3)cc1)c1nnc(C)n1-2 (stereo partly drawn) [PHOTAC-I-10, 2-((S)-4-(4-chlorophenyl)-2,3,9-trimethyl-6H-thieno[3,2-f][1,2,4]triazolo[4,3-a][1,4]diazepin-6-yl)-N-(4-((E)-(4-(2-((2-(2,6-dioxopiperidin-3-yl)-1,3-dioxoisoindolin-4-yl)oxy)acetamido)phenyl)diazenyl)phenyl)acetamide]	–	light-dependent behavior	≤ 10	clear hook-effect	–	–	–	–	–
CCC(C)(C)C(=O)C(=O)N1CCCC[C@H]1C(=O)O[C@H](CCc1ccc(OC)c(OC)c1)c1cccc(OCC(=O)NCCCNC(=O)COc2c(OC)cc(/N=N\c3cccc4c3CN(C3CCC(=O)NC3=O)C4=O)cc2OC)c1 (stereo partly drawn) [PHOTAC-II-1, (1R)-3-(3,4-dimethoxyphenyl)-1-(3-(2-((3-(2-(4-((2-(2,6-dioxopiperidin-3-yl)-1-oxoisoindolin-4-yl)diazenyl)-2,6-dimethoxyphenoxy)acetamido)propyl)-amino)-2-oxoethoxy)phenyl)propyl-(2S)-1-(3,3-dimethyl-2-oxopentanoyl)-piperidine-2-carboxylate]	–	–	–	–	slow, but sustained FKBP12 degradation over time	not when kept in the dark	–	–	–
CCC(C)(C)C(=O)C(=O)N1CCCC[C@H]1C(=O)O[C@H](CCc1ccc(OC)c(OC)c1)c1cccc(OCC(=O)NCCNC(=O)COc2ccc(/N=N\c3cccc4c3CN(C3CCC(=O)NC3=O)C4=O)cc2)c1 (stereo partly drawn) [PHOTAC-II-5, (1R)-3-(3,4-dimethoxyphenyl)-1-(3-(2-((2-(2-(4-((Z)-(2-(2,6-dioxopiperidin-3-yl)-1-oxoisoindolin-4-yl)diazenyl)phenoxy)acetamido)ethyl)amino)-2-oxoethoxy)phenyl)propyl (25)-1-(3,3-dimethyl-2-oxopentanoyl)piperidine-2-carboxylate]	–	–	–	–	pronounced effect on FKBP12 levels	no degradation could be observed in the dark	pronounced “hook effect”	inactive	largest light activation
CCC(C)(C)C(=O)C(=O)N1CCCC[C@H]1C(=O)O[C@H](CCc1ccc(OC)c(OC)c1)c1cccc(OCC(=O)Nc2ccc(/N=N/c3ccc(NC(=O)COc4cccc5c4C(=O)N(C4CCC(=O)NC4=O)C5=O)cc3)cc2)c1 (stereo partly drawn) [PHOTAC-II-6, (1R)-3-(3,4-dimethoxyphenyl)-1-(3-(2-((4-((E)-(4-(2-((2-(2,6-dioxopiperidin-3-yl)-1,3-dioxoisoindolin-4-yl)oxy)acetamido)phenyl)diazenyl)phenyl)amino)-2-oxoethoxy)phenyl)propyl (2S)-1-(3,3-dimethyl-2-oxopentanoyl)piperidine-2-carboxylate]	–	–	–	–	light-dependent degradation	slight dark activity	pronounced “hook effect”	inactive	largest light activation
